Values after ≈ are worked out from the molar mass of the structure shown.
How the values were obtained:
Assay type in all cases: functional
Streptococcus pneumoniae [1] = assay: Antibacterial activity against erythromycin-susceptible Streptococcus pneumoniae ATCC 49619 by broth microdilution method
Streptococcus pneumoniae [2] = assay: Antibacterial activity against erythromycin-resistant Streptococcus pneumoniae B1 expressing erm gene by broth microdilution method
Streptococcus pneumoniae [3] = assay: Antibacterial activity against erythromycin-resistant Streptococcus pneumoniae A22072 expressing mef gene by broth microdilution method
Streptococcus pneumoniae [4] = assay: Antibacterial activity against erythromycin-resistant Streptococcus pneumoniae AB11 expressing erm and mef gene by broth microdilution method
Staphylococcus aureus = assay: Antibacterial activity against erythromycin-susceptible Staphylococcus aureus ATCC 25923 by broth microdilution method
Streptococcus pneumoniae [5] = assay: Ratio of clarithromycin MIC to compound MIC for erythromycin-resistant Streptococcus pneumoniae A22072 expressing mef gene
Streptococcus pneumoniae [6] = assay: Ratio of erythromycin MIC to compound MIC for erythromycin-resistant Streptococcus pneumoniae A22072 expressing mef gene
Streptococcus pneumoniae [7] = assay: Ratio of clarithromycin MIC to compound MIC for erythromycin-resistant Streptococcus pneumoniae B1 expressing erm gene
Streptococcus pneumoniae [8] = assay: Ratio of azithromycin MIC to compound MIC for erythromycin-resistant Streptococcus pneumoniae B1 expressing erm gene
Streptococcus pneumoniae [9] = assay: Ratio of erythromycin MIC to compound MIC for erythromycin-resistant Streptococcus pneumoniae B1 expressing erm gene

Compound	MIC (Streptococcus pneumoniae [1])	MIC (Streptococcus pneumoniae [2])	MIC (Streptococcus pneumoniae [3])	MIC (Streptococcus pneumoniae [4])	MIC (Staphylococcus aureus)	Ratio (Streptococcus pneumoniae [5])	Ratio (Streptococcus pneumoniae [6])	Ratio (Streptococcus pneumoniae [7])	Ratio (Streptococcus pneumoniae [8])	Ratio (Streptococcus pneumoniae [9])
CC[C@H]1OC(=O)[C@H](C)[C@@H](O[C@H]2C[C@@](C)(OC)[C@@H](OC(=O)NNC(=O)c3ccc4[nH]c(-c5ccc([N+](=O)[O-])cc5)nc4c3)[C@H](C)O2)[C@H](C)[C@@H](O[C@@H]2O[C@H](C)C[C@H](N(C)C)[C@H]2O)[C@](C)(OC)C[C@@H](C)C(=O)[C@H](C)[C@@H](O)[C@]1(C)O	0.25 µg/mL (≈ 0.233 µM)	16 µg/mL (≈ 14.9 µM)	0.03 µg/mL (≈ 0.028 µM)	16 µg/mL (≈ 14.9 µM)	1 µg/mL (≈ 0.934 µM)	133	267			
CC[C@H]1OC(=O)[C@H](C)[C@@H](O[C@H]2C[C@@](C)(OC)[C@@H](OC(=O)NNC(=O)c3ccc4[nH]c(-c5cccc([N+](=O)[O-])c5)nc4c3)[C@H](C)O2)[C@H](C)[C@@H](O[C@@H]2O[C@H](C)C[C@H](N(C)C)[C@H]2O)[C@](C)(OC)C[C@@H](C)C(=O)[C@H](C)[C@@H](O)[C@]1(C)O	0.25 µg/mL (≈ 0.233 µM)	64 µg/mL (≈ 59.7 µM)	1 µg/mL (≈ 0.934 µM)	128 µg/mL (≈ 119 µM)	0.5 µg/mL (≈ 0.467 µM)					
CC[C@H]1OC(=O)[C@H](C)[C@@H](O[C@H]2C[C@@](C)(OC)[C@@H](OC(=O)NNC(=O)c3ccc4[nH]c(-c5ccc(C(F)(F)F)cc5)nc4c3)[C@H](C)O2)[C@H](C)[C@@H](O[C@@H]2O[C@H](C)C[C@H](N(C)C)[C@H]2O)[C@](C)(OC)C[C@@H](C)C(=O)[C@H](C)[C@@H](O)[C@]1(C)O	0.25 µg/mL (≈ 0.228 µM)	8 µg/mL (≈ 7.31 µM)	0.06 µg/mL (≈ 0.0548 µM)	8 µg/mL (≈ 7.31 µM)	0.5 µg/mL (≈ 0.457 µM)					
CC[C@H]1OC(=O)[C@H](C)[C@@H](O[C@H]2C[C@@](C)(OC)[C@@H](OC(=O)NNC(=O)c3ccc4[nH]c(-c5ccc(Br)cc5)nc4c3)[C@H](C)O2)[C@H](C)[C@@H](O[C@@H]2O[C@H](C)C[C@H](N(C)C)[C@H]2O)[C@](C)(OC)C[C@@H](C)C(=O)[C@H](C)[C@@H](O)[C@]1(C)O	0.25 µg/mL (≈ 0.226 µM)	16 µg/mL (≈ 14.5 µM)	0.06 µg/mL (≈ 0.0543 µM)	16 µg/mL (≈ 14.5 µM)	1 µg/mL (≈ 0.905 µM)					
CC[C@H]1OC(=O)[C@H](C)[C@@H](O[C@H]2C[C@@](C)(OC)[C@@H](OC(=O)NNC(=O)c3ccc4[nH]cnc4c3)[C@H](C)O2)[C@H](C)[C@@H](O[C@@H]2O[C@H](C)C[C@H](N(C)C)[C@H]2O)[C@](C)(OC)C[C@@H](C)C(=O)[C@H](C)[C@@H](O)[C@]1(C)O	0.12 µg/mL (≈ 0.126 µM)	32 µg/mL (≈ 33.7 µM)	1 µg/mL (≈ 1.05 µM)	32 µg/mL (≈ 33.7 µM)	0.5 µg/mL (≈ 0.526 µM)					
CC[C@H]1OC(=O)[C@H](C)[C@@H](O[C@H]2C[C@@](C)(OC)[C@@H](OC(=O)NNC(=O)c3ccc4[nH]c(C)nc4c3)[C@H](C)O2)[C@H](C)[C@@H](O[C@@H]2O[C@H](C)C[C@H](N(C)C)[C@H]2O)[C@](C)(OC)C[C@@H](C)C(=O)[C@H](C)[C@@H](O)[C@]1(C)O	0.12 µg/mL (≈ 0.124 µM)	8 µg/mL (≈ 8.3 µM)	1 µg/mL (≈ 1.04 µM)	64 µg/mL (≈ 66.4 µM)	0.5 µg/mL (≈ 0.519 µM)					
CC[C@H]1OC(=O)[C@H](C)[C@@H](O[C@H]2C[C@@](C)(OC)[C@@H](OC(=O)NNC(=O)c3ccc4[nH]c(C(F)(F)F)nc4c3)[C@H](C)O2)[C@H](C)[C@@H](O[C@@H]2O[C@H](C)C[C@H](N(C)C)[C@H]2O)[C@](C)(OC)C[C@@H](C)C(=O)[C@H](C)[C@@H](O)[C@]1(C)O	0.12 µg/mL (≈ 0.118 µM)	32 µg/mL (≈ 31.4 µM)	0.12 µg/mL (≈ 0.118 µM)	64 µg/mL (≈ 62.9 µM)	0.25 µg/mL (≈ 0.246 µM)					
CCc1nc2cc(C(=O)NNC(=O)O[C@H]3[C@H](C)O[C@@H](O[C@H]4[C@H](C)[C@@H](O[C@@H]5O[C@H](C)C[C@H](N(C)C)[C@H]5O)[C@](C)(OC)C[C@@H](C)C(=O)[C@H](C)[C@@H](O)[C@](C)(O)[C@@H](CC)OC(=O)[C@@H]4C)C[C@@]3(C)OC)ccc2[nH]1	0.25 µg/mL (≈ 0.256 µM)	32 µg/mL (≈ 32.7 µM)	0.12 µg/mL (≈ 0.123 µM)	64 µg/mL (≈ 65.4 µM)	0.5 µg/mL (≈ 0.511 µM)					
CCCc1nc2cc(C(=O)NNC(=O)O[C@H]3[C@H](C)O[C@@H](O[C@H]4[C@H](C)[C@@H](O[C@@H]5O[C@H](C)C[C@H](N(C)C)[C@H]5O)[C@](C)(OC)C[C@@H](C)C(=O)[C@H](C)[C@@H](O)[C@](C)(O)[C@@H](CC)OC(=O)[C@@H]4C)C[C@@]3(C)OC)ccc2[nH]1	0.12 µg/mL (≈ 0.121 µM)	64 µg/mL (≈ 64.5 µM)	0.12 µg/mL (≈ 0.121 µM)	64 µg/mL (≈ 64.5 µM)	0.25 µg/mL (≈ 0.252 µM)					
CC[C@H]1OC(=O)[C@H](C)[C@@H](O[C@H]2C[C@@](C)(OC)[C@@H](OC(=O)NNC(=O)c3ccc4[nH]c(C(C)C)nc4c3)[C@H](C)O2)[C@H](C)[C@@H](O[C@@H]2O[C@H](C)C[C@H](N(C)C)[C@H]2O)[C@](C)(OC)C[C@@H](C)C(=O)[C@H](C)[C@@H](O)[C@]1(C)O	0.12 µg/mL (≈ 0.121 µM)	16 µg/mL (≈ 16.1 µM)	0.12 µg/mL (≈ 0.121 µM)	64 µg/mL (≈ 64.5 µM)	0.12 µg/mL (≈ 0.121 µM)					
CC[C@H]1OC(=O)[C@H](C)[C@@H](O[C@H]2C[C@@](C)(OC)[C@@H](OC(=O)NNC(=O)c3ccc4[nH]c(-c5ccccc5)nc4c3)[C@H](C)O2)[C@H](C)[C@@H](O[C@@H]2O[C@H](C)C[C@H](N(C)C)[C@H]2O)[C@](C)(OC)C[C@@H](C)C(=O)[C@H](C)[C@@H](O)[C@]1(C)O	0.03 µg/mL (≈ 0.0292 µM)	8 µg/mL (≈ 7.8 µM)	0.03 µg/mL (≈ 0.0292 µM)	16 µg/mL (≈ 15.6 µM)	0.25 µg/mL (≈ 0.244 µM)	133	267			
CC[C@H]1OC(=O)[C@H](C)[C@@H](O[C@H]2C[C@@](C)(OC)[C@@H](OC(=O)NNC(=O)c3ccc4[nH]c(-c5ccc(C)cc5)nc4c3)[C@H](C)O2)[C@H](C)[C@@H](O[C@@H]2O[C@H](C)C[C@H](N(C)C)[C@H]2O)[C@](C)(OC)C[C@@H](C)C(=O)[C@H](C)[C@@H](O)[C@]1(C)O	0.12 µg/mL (≈ 0.115 µM)	2 µg/mL (≈ 1.92 µM)	0.03 µg/mL (≈ 0.0288 µM)	16 µg/mL (≈ 15.4 µM)	0.25 µg/mL (≈ 0.24 µM)	133	267	64	64	64
CC[C@H]1OC(=O)[C@H](C)[C@@H](O[C@H]2C[C@@](C)(OC)[C@@H](OC(=O)NNC(=O)c3ccc4[nH]c(-c5cccc(OC)c5)nc4c3)[C@H](C)O2)[C@H](C)[C@@H](O[C@@H]2O[C@H](C)C[C@H](N(C)C)[C@H]2O)[C@](C)(OC)C[C@@H](C)C(=O)[C@H](C)[C@@H](O)[C@]1(C)O	0.03 µg/mL (≈ 0.0284 µM)	16 µg/mL (≈ 15.1 µM)	0.03 µg/mL (≈ 0.0284 µM)	32 µg/mL (≈ 30.3 µM)	0.12 µg/mL (≈ 0.114 µM)	133	267			
CC[C@H]1OC(=O)[C@H](C)[C@@H](O[C@H]2C[C@@](C)(OC)[C@@H](OC(=O)NNC(=O)c3ccc4[nH]c(-c5ccc(OC)cc5)nc4c3)[C@H](C)O2)[C@H](C)[C@@H](O[C@@H]2O[C@H](C)C[C@H](N(C)C)[C@H]2O)[C@](C)(OC)C[C@@H](C)C(=O)[C@H](C)[C@@H](O)[C@]1(C)O	0.12 µg/mL (≈ 0.114 µM)	4 µg/mL (≈ 3.79 µM)	0.03 µg/mL (≈ 0.0284 µM)	16 µg/mL (≈ 15.1 µM)	0.25 µg/mL (≈ 0.237 µM)	133	267			
CC[C@H]1OC(=O)[C@H](C)[C@@H](O[C@H]2C[C@@](C)(OC)[C@@H](OC(=O)NNC(=O)c3ccc4[nH]c(-c5ccccc5Cl)nc4c3)[C@H](C)O2)[C@H](C)[C@@H](O[C@@H]2O[C@H](C)C[C@H](N(C)C)[C@H]2O)[C@](C)(OC)C[C@@H](C)C(=O)[C@H](C)[C@@H](O)[C@]1(C)O	0.03 µg/mL (≈ 0.0283 µM)	32 µg/mL (≈ 30.2 µM)	0.03 µg/mL (≈ 0.0283 µM)	32 µg/mL (≈ 30.2 µM)	0.06 µg/mL (≈ 0.0566 µM)	133	267			
CC[C@H]1OC(=O)[C@H](C)[C@@H](O[C@H]2C[C@@](C)(OC)[C@@H](OC(=O)NNC(=O)c3ccc4[nH]c(-c5ccc(Cl)cc5)nc4c3)[C@H](C)O2)[C@H](C)[C@@H](O[C@@H]2O[C@H](C)C[C@H](N(C)C)[C@H]2O)[C@](C)(OC)C[C@@H](C)C(=O)[C@H](C)[C@@H](O)[C@]1(C)O	0.03 µg/mL (≈ 0.0283 µM)	8 µg/mL (≈ 7.54 µM)	0.03 µg/mL (≈ 0.0283 µM)	16 µg/mL (≈ 15.1 µM)	0.5 µg/mL (≈ 0.471 µM)	133	267			
CC[C@H]1OC(=O)[C@H](C)[C@@H](O[C@H]2C[C@@](C)(OC)[C@@H](OC(=O)NNC(=O)c3ccc4[nH]c(-c5cccc(Cl)c5O)nc4c3)[C@H](C)O2)[C@H](C)[C@@H](O[C@@H]2O[C@H](C)C[C@H](N(C)C)[C@H]2O)[C@](C)(OC)C[C@@H](C)C(=O)[C@H](C)[C@@H](O)[C@]1(C)O	0.03 µg/mL (≈ 0.0279 µM)	16 µg/mL (≈ 14.9 µM)	0.25 µg/mL (≈ 0.232 µM)	32 µg/mL (≈ 29.7 µM)	0.5 µg/mL (≈ 0.464 µM)					
CC[C@H]1OC(=O)[C@H](C)[C@@H](O[C@H]2C[C@@](C)(OC)[C@@H](O)[C@H](C)O2)[C@H](C)[C@@H](O[C@@H]2O[C@H](C)C[C@H](N(C)C)[C@H]2O)[C@](C)(O)C[C@@H](C)CN(C)[C@H](C)[C@@H](O)[C@]1(C)O [AZITHROMYCIN]	0.12 µg/mL (≈ 0.16 µM)	128 µg/mL (≈ 171 µM)	4 µg/mL (≈ 5.34 µM)	256 µg/mL (≈ 342 µM)	0.12 µg/mL (≈ 0.16 µM)					
CC[C@H]1OC(=O)[C@H](C)[C@@H](O[C@H]2C[C@@](C)(OC)[C@@H](O)[C@H](C)O2)[C@H](C)[C@@H](O[C@@H]2O[C@H](C)C[C@H](N(C)C)[C@H]2O)[C@](C)(OC)C[C@@H](C)C(=O)[C@H](C)[C@@H](O)[C@]1(C)O [CLARITHROMYCIN]	0.12 µg/mL (≈ 0.16 µM)	128 µg/mL (≈ 171 µM)	4 µg/mL (≈ 5.35 µM)	128 µg/mL (≈ 171 µM)	0.12 µg/mL (≈ 0.16 µM)					
CC[C@H]1OC(=O)[C@H](C)[C@@H](O[C@H]2C[C@@](C)(OC)[C@@H](O)[C@H](C)O2)[C@H](C)[C@@H](O[C@@H]2O[C@H](C)C[C@H](N(C)C)[C@H]2O)[C@](C)(O)C[C@@H](C)C(=O)[C@H](C)[C@@H](O)[C@]1(C)O [ERYTHROMYCIN]	0.12 µg/mL (≈ 0.164 µM)	128 µg/mL (≈ 174 µM)	8 µg/mL (≈ 10.9 µM)	256 µg/mL (≈ 349 µM)	0.12 µg/mL (≈ 0.164 µM)					

Source: ChEMBL document CHEMBL1795320, “Synthesis and antibacterial activity of novel 4″-O-benzimidazolyl clarithromycin derivatives” (2011)
